Source: the METLIN SMRT retention time set (Domingo-Almenara et al. 2019)

Assay: gradient 5% acetonitrile 3 min, to 50% in 2 min, to 85% in 15 min, held 3 min, 100 µL/min
Settings: column: Zorbax Extend-C18 2.1 x 50 mm; eluents: water / acetonitrile, 0.1% formic acid
Summary of the method: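 Retention times come from adduct peaks that were picked computationally and then checked by hand. The standards, pure and pooled in mixtures of ~100 molecules, were run on a Zorbax Extend-C18 column (2.1 × 50 mm, 1.8 μm) at 100 μL/min with water and acetonitrile, each with 0.1% formic acid. Detection was by quadrupole time-of-flight mass spectrometry in positive and negative ionization mode, with a dead volume of 40 μL and a dwell volume of 900 μL.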

Row | SMILES | RP-LC retention time
1 | CC(C)c1cc(C2CCCN2C(=O)c2ccc3c(c2)OCO3)on1 (configuration not stated) | 824 s
2 | Cc1ccc(N2CC(c3noc(-c4ccc(C(C)(C)C)cc4)n3)CC2=O)cc1 (configuration not stated) | 1310 s
3 | CC(C)CN1CCN(C(=O)COc2ccc(NC(=O)C3CC3)cn2)CC1 | 570 s
4 | COc1cccc(CNC2CCN(c3ccc(C(=O)NC4CC4)cn3)C2)c1O (configuration not stated) | 556 s
5 | O=C(Nc1ccc(F)cc1Cl)c1cccn1Cc1noc(C2CC2)n1 | 924 s
6 | CC(C)(Oc1ccc(Cl)cc1)C(=O)Nc1nnc(C2CC(=O)N(c3ccccc3)C2)o1 (configuration not stated) | 793 s
7 | CCCCn1cnc2c(-c3ccccc3)cn(CC(=O)NC(C)CC)c2c1=O (configuration not stated) | 985 s
8 | CCn1ccc(C(=O)N2CCN(c3cc(-c4ccc(Cl)cc4)[nH]n3)CC2)n1 | 827 s
9 | O=C(Nc1cnc(-c2ccccc2)nc1)c1ccccc1C(F)(F)F | 970 s
10 | C=CCNC(=O)c1cn(-c2cc(-c3nc(C(C)C)no3)ccn2)cn1 | 820 s
11 | Cc1ccc([N+](=O)[O-])cc1S(=O)(=O)Nc1ccc(-c2cn3ccccc3n2)cc1 | 664 s
12 | CCOC(=O)c1ccc(NC(=O)C2CCN(S(=O)(=O)c3cn(CC)cn3)CC2)cc1 | 774 s
13 | Cc1cc(C)cc(C(=O)N2CCCC(C(=O)NCCN3CCCC3)C2)c1 (configuration not stated) | 606 s
14 | Cc1ccc(C(=O)NCCc2nc3cccnc3n2C(C)C)cc1 | 666 s
15 | CCOC(=O)N1CCN(C(=O)CSc2nncn2C)CC1 | 560 s
16 | Cc1nnc2cc(N3CCN(C(=O)c4cccc(N(C)C)c4)CC3)cnn12 | 496 s
17 | CCN(CC)S(=O)(=O)c1ccc(C(=O)Nc2nc3c(s2)CCc2ccccc2-3)cc1 | 738 s
18 | O=C(NCC1(N2CCOCC2)CCOC1)Nc1cc(F)cc(F)c1 (configuration not stated) | 604 s
19 | OCC1CN(c2ncccn2)CC12CCN(Cc1cc(Cl)ccc1F)CC2 (configuration not stated) | 577 s
20 | CC[C@H](C)Nc1c(C(=O)OC)c(=O)[nH]c2c(Cl)cccc12 | 783 s
21 | Cc1nnc(-c2cn(CC(=O)NCCCc3ccccc3)c3ccccc23)o1 | 827 s
22 | Cc1cc2nn(CC(=O)Nc3ccc(Cl)cc3)c(=O)n2c(Nc2ccccc2)n1 | 1050 s
23 | O=C(NCc1cccc(Br)c1)C1CCN(c2nnc(-c3ccccc3)o2)CC1 | 885 s
24 | CCCCN(C)c1ncc(C(=O)NCc2ccccc2)c(N)n1 | 690 s
25 | O=C(CSc1ccc(-c2ccc3c(c2)OCO3)nn1)Nc1ccc2c(c1)OCCO2 | 782 s
26 | Cc1ccc(C)c(N2CC(c3nc(-c4ccc5c(c4)OCO5)no3)CC2=O)c1 (configuration not stated) | 998 s
27 | O=C(NC1CCCC1)N1CCCCC1c1nncn1-c1ccccc1 (configuration not stated) | 602 s

More lines, now with the values ahead:

Row | RP-LC retention time | SMILES
28 | 685 s | COc1ccc(-c2nc3cccnc3n2C2CCN(C(=O)c3ccco3)C2)cc1 (configuration not stated)
29 | 552 s | C[C@H](NC(=O)[C@@H]1CCCN1C(=O)[C@@H]1CCCN1C(=O)[C@@H](O)[C@H](N)Cc1ccccc1)C(N)=O
30 | 864 s | CCOc1ccc(N2C(=O)N[C@@H]3C[C@]2(C)Oc2ccc(OC)cc23)cc1
31 | 594 s | COCCN1C(=O)[C@H]2CN(Cc3ccc(OC)cc3OC)C[C@H]2C1=O
32 | 867 s | CC(C)N1C(=O)c2cccnc2Sc2cc(NC(=O)Cc3ccc(F)cc3)ccc21
33 | 926 s | O=C(CCN1C(=O)C2C3C=CC(C3)C2C1=O)Nc1nc(-c2ccccc2)cs1 (configuration not stated)
34 | 746 s | COc1cc(-c2nc3ccc(Cl)cn3c2Nc2ccc(Cl)cc2)ccc1O
35 | 626 s | O=C(c1cccs1)N1CCC(c2nncn2-c2ccccc2)CC1
36 | 840 s | CCc1ccc(NC(=O)C2CCN(S(=O)(=O)c3cn(C(C)C)cn3)CC2)cc1
37 | 1110 s | CC1=NS(=O)(=O)N(Cc2ccccc2)C=C1C(=O)OCc1noc(C2CCCCC2)n1
38 | 834 s | CC(C(=O)Nc1ccc(F)cc1F)C1CCN(C(=O)Nc2ccccc2)CC1 (configuration not stated)
39 | 711 s | Cc1ccc(C)c(NC(=O)N2CCC(c3nc(C(=O)N(C)C)c(C)o3)CC2)c1
40 | 661 s | CCc1ccc(NC(=O)CN2CCc3[nH]c4c(OC)ccc(Cl)c4c(=O)c3C2)cc1
41 | 621 s | CCCCn1cnc2c(nnn2C)c1=O
42 | 1080 s | O=C(NC1CCCC1)N1CC(Oc2ccc(-c3nc(-c4ccccc4)no3)cc2)C1
43 | 678 s | CC(C)(C)NC(=O)NC1CCN(C(=O)C2CCCC2)C1 (configuration not stated)
44 | 654 s | CN1CCn2ccnc2C12CCN(S(=O)(=O)c1ccccc1C(F)(F)F)CC2
45 | 954 s | COc1ccc(-c2ccc(=O)n(Cc3nc(-c4ccccc4)no3)n2)cc1
46 | 913 s | O=C(C1=CN(c2ccc(Oc3ccccc3)cc2)c2ccccc2S1(=O)=O)N1CCOCC1
47 | 760 s | O=C(c1ccc2c(c1)OCO2)N1CCC2(CC1)NC(=O)N(Cc1ccccc1)C2=O

Row | RP-LC retention time | SMILES
48 | 672 s | O=C(C1CCN(c2nn3c(=O)c4c(nc3s2)CCCC4)CC1)N1CCN(c2ncccn2)CC1
49 | 1300 s | COc1ccc(-c2ccnn2-c2ccc(SCc3cccc(F)c3)nn2)cc1
50 | 752 s | COc1ccc(C)cc1NC(=O)Cn1nc2cc(-c3ccccc3)nc(C)n2c1=O
51 | 835 s | COc1ccc(C)cc1NC(=O)N1CCCC1c1cc(C)no1 (configuration not stated)
52 | 958 s | CCN1C=C(C(=O)OCc2ccccc2)C(C)=NS1(=O)=O
53 | 892 s | O=C(Nc1nc(-c2ccc([N+](=O)[O-])cc2)cs1)c1ccc2ncsc2c1
54 | 740 s | Cc1ccc2nc(Cl)cc(=O)n2c1
55 | 562 s | CN(C)c1ccc(CNC(=O)C2CCN(c3cnc4nccnc4c3)CC2)cc1
56 | 997 s | O=C(Cc1ccccc1)NCc1nc(-c2ccc3oc(-c4ccccc4)nc3c2)no1
57 | 1350 s | CCc1nc2cc(-c3noc(-c4ccc(C)c(F)c4)n3)ccc2o1
58 | 1030 s | Cc1ccc(S(=O)(=O)N2CCC(n3cnc4c(C)cccc4c3=O)CC2)cc1F
59 | 1070 s | CCOc1ccc(CC(=O)N2c3ccccc3CC2c2nc(C3CC3)no2)cc1OCC (configuration not stated)
60 | 770 s | CCOC(=O)c1ncoc1-c1ccccc1C(=O)NC1CCCCC1
61 | 680 s | CCC(C)NC(=O)c1cc(C)nc2ccc(F)cc12 (configuration not stated)
62 | 822 s | COc1cc(NC(=O)CN2C(=O)CCn3nc(-c4cn(C)c5ccccc45)cc32)cc(OC)c1
63 | 862 s | CC(C)NC(=O)c1ccc(OCC2CCCN2C(=O)c2ccc(F)c(F)c2)cc1 (configuration not stated)
64 | 808 s | O=C1CCC2(C(=O)NCCc3ccccc3)CCCC=C2N1c1ccccc1 (configuration not stated)
65 | 789 s | Cc1ccc(S(=O)(=O)N2CCC(c3cc(N)on3)CC2)cc1
66 | 700 s | Cc1noc(C2CN(C(=O)Nc3ccccc3C)CC23CCOCC3)n1 (configuration not stated)
67 | 891 s | Cc1ccccc1Cn1nc2ccc(S(=O)(=O)N3CCCC3)cn2c1=O
